Several values for one entry are separate records, joined by “and”; a condition that tells them apart may be missing. Equal entries are not always repeated. Entries after “also recorded” stand apart in the source; their conditions may differ.
Legend:
anesthetized dogs = assay: Hemodynamics in anesthetized dogs, iv; assay type: in vivo
Protocol: Solvent control group, Isosorbide Dinitrate control group (0.4 mg/kg/h) and administration groups of 3,4′,5-trihydroxy-stilbene-3-[…]-D-glucoside at low (2.5 mg/kg), middle (5 mg/kg) or high (10 mg/kg) doses were set up for the test. Isosorbide Dinitrate control group were medicated by continuous intravenous infusion and other groups by intravenous injection.
After anesthetized with pentobarbital sodium, the dog was immobilized on its back. A femoral artery was separated for insertion of a catheter to record blood pressure of artery. A cardiac catheter was guided inversely from right common carotid artery into its left ventricle. Both catheters were connected to pressure transmitters. After pressure signals were amplified with carriers, they were input into an electrophysiolograph Powerlab system 8s, (ML785/8S AD Instruments, Australia). Needle electrodes were punctured into four limbs to monitor standard 2-lead ECG. A computer (chart4.12, ML785/8S, AD Instruments, Australia) were applied for real-time monitoring and storage of data. After operation, there were 30 minutes for stableness and then basic indexes were recorded before administration. Negative control group were given by […] injection of solvent at 2 ml/kg, while positive control group were intravenously infused at 0.4 mg/kg/h. […]
Indexes of observation included heart rate (HR), systolic blood pressure (BPs), diastolic blood pressure, mean blood pressure, left ventricular systolic pressure (LVSP), left ventricular diastolic pressure (LVDP), the maximum change rate of left ventricular systolic pressure rise and fall (±dp/dtmax), left ventricular end diastolic pressure and ECG.
Significance of differences was checked.

[1] = Pharmacokinetics of single-dose iv in Beagle dogs; conditions: for maximum plasma drug concentration: dogs;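 on all read-outs here: plasma levels in healthy adult Beagle dogs, five per dose group, after slow forelimb iv injection over 5 min, parameters from non-compartmental statistical moment analysis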
Protocol: Pharmacokinetical studies were carried out in three groups at the doses of 10 mg/Kg, 20 mg/Kg and 30 mg/Kg. Five healthy adult Beagle dogs were chosen into each dose group. […] The intravenous injection was performed in one forelimb of each tested dog within 5 min in a very slow manner. Three hours after the intravenous injection, the dogs could be fed. 3 ml of venous blood was sampled in heparinized tubes from another forelimb of each tested dog before and 0, 5, 10, 20, 40, 60, 90, 120, 180, 240, 300, 360 and 480 min after administration. Blood samples were centrifuged to obtain 1 ml of plasma.
Non compartmental modeling method (statistical moment) was applied in the data analysis. Estimating formula of corresponding parameters is as follows:
AUC0˜τ=Σ(Ci+Ci−1)×(ti−ti−1)/2
AUC0˜∞=Σ(Ci+Ci−1)×(ti−ti−1)/2+Cn/λ
AUMC0˜∞=Σ(Citi+Ci−1ti−1)×(ti−ti−1)/2+Cn(1/λ^2+tn/λ)
Where, in the formula, λ indicates the number of terminal eliminating rate of the concentration-time curve. tn and Cn represent the latest time of blood-sampling and plasma drug concentration, respectively. Pharmacokinetical parameters such as tmax and Cmax take the corresponding measuring value of plasma samples.
These pharmacokinetic parameters are obtained with non compartmental modeling method.

[2] = TSG 5 mg/kg iv, Time c1-c5: 0,15,30,60,120 min, 60 min after dosing
[3] = TSG 5 mg/kg iv, Time c1-c5: 0,15,30,60,120 min, 120 min after dosing
[4] = TSG 10 mg/kg iv, Time c1-c5: 0,10,30,60,120 min, 0 min
[5] = TSG 10 mg/kg iv, Time c1-c5: 0,10,30,60,120 min, 10 min after dosing
[6] = TSG 10 mg/kg iv, Time c1-c5: 0,10,30,60,120 min, 30 min after dosing
[7] = TSG 10 mg/kg iv, Time c1-c5: 0,10,30,60,120 min, 60 min after dosing
[8] = TSG 10 mg/kg iv, Time c1-c5: 0,10,30,60,120 min, 120 min after dosing
[9] = Beagle dogs, single dose iv, 10 mg/Kg, non compartmental
[10] = Beagle dogs, single dose iv, 20 mg/Kg, non compartmental
[11] = Beagle dogs, single dose iv, 30 mg/Kg, non compartmental

3,4′,5-trihydroxy-stilbene-3-β-D-glucoside [TSG]
HR (anesthetized dogs; [2]): 178.0 ± 29.5 p/min
LVEDP (anesthetized dogs; [2]): 0.99 ± 1.19 KPa
LVSP (anesthetized dogs; [2]): 25.6 ± 3.0 KPa
−dp/dt max (anesthetized dogs; [2]): 891.5 ± 261.8 Kpa/s
+dp/dt max (anesthetized dogs; [3]): 921.4 ± 327.1 Kpa/s
BPd (anesthetized dogs; [3]): 18.8 ± 4.4 KPa
BPm (anesthetized dogs; [3]): 21.0 ± 4.4 KPa
BPs (anesthetized dogs; [3]): 25.0 ± 5.0 KPa
HR (anesthetized dogs; [3]): 170.2 ± 37.1 p/min
LVEDP (anesthetized dogs; [3]): 0.98 ± 1.42 KPa
LVSP (anesthetized dogs; [3]): 25.1 ± 5.2 KPa
−dp/dt max (anesthetized dogs; [3]): 872.0 ± 291.7 Kpa/s
+dp/dt max (anesthetized dogs; [4]): 1455.5 ± 637.7 Kpa/s
BPd (anesthetized dogs; [4]): 19.6 ± 3.7 KPa
BPm (anesthetized dogs; [4]): 22.5 ± 4.8 KPa
BPs (anesthetized dogs; [4]): 28.5 ± 7.5 KPa
HR (anesthetized dogs; [4]): 212.5 ± 31.3 p/min
LVSP (anesthetized dogs; [4]): 30.1 ± 5.9 KPa
−dp/dt max (anesthetized dogs; [4]): 1164.1 ± 488.8 Kpa/s
+dp/dt max (anesthetized dogs; [5]): 1646.2 ± 807.8 Kpa/s
BPd (anesthetized dogs; [5]): 21.0 ± 5.1 KPa
BPm (anesthetized dogs; [5]): 24.5 ± 5.9 KPa
BPs (anesthetized dogs; [5]): 32.4 ± 8.2 KPa
HR (anesthetized dogs; [5]): 209.7 ± 33.4 p/min
LVSP (anesthetized dogs; [5]): 32.4 ± 6.3 KPa
−dp/dt max (anesthetized dogs; [5]): 1200.6 ± 447.6 Kpa/s
+dp/dt max (anesthetized dogs; [6]): 1623.9 ± 729.5 Kpa/s
BPd (anesthetized dogs; [6]): 21.4 ± 5.5 KPa
BPm (anesthetized dogs; [6]): 25.1 ± 5.9 KPa
BPs (anesthetized dogs; [6]): 33.2 ± 8.5 KPa
HR (anesthetized dogs; [6]): 210.2 ± 33.8 p/min
LVSP (anesthetized dogs; [6]): 32.4 ± 6.8 KPa
−dp/dt max (anesthetized dogs; [6]): 1120.4 ± 357.8 Kpa/s
+dp/dt max (anesthetized dogs; [7]): 1518.5 ± 708.1 Kpa/s
BPd (anesthetized dogs; [7]): 20.6 ± 4.8 KPa
BPm (anesthetized dogs; [7]): 24.4 ± 5.1 KPa
BPs (anesthetized dogs; [7]): 33.6 ± 5.5 KPa
HR (anesthetized dogs; [7]): 207.1 ± 38.1 p/min
LVSP (anesthetized dogs; [7]): 31.7 ± 5.5 KPa
−dp/dt max (anesthetized dogs; [7]): 1189.6 ± 461.6 Kpa/s
+dp/dt max (anesthetized dogs; [8]): 1266.6 ± 334.8 Kpa/s
BPd (anesthetized dogs; [8]): 20.2 ± 3.0 KPa
BPm (anesthetized dogs; [8]): 22.7 ± 3.0 KPa
BPs (anesthetized dogs; [8]): 29.0 ± 4.8 KPa
HR (anesthetized dogs; [8]): 205.6 ± 50.2 p/min
LVSP (anesthetized dogs; [8]): 29.5 ± 2.7 KPa
−dp/dt max (anesthetized dogs; [8]): 1068.5 ± 208.6 Kpa/s
AUC0~∞ ([1]; 10 mg/kg iv): 315.42 ± 60.82 µg·min/mL and 315 µg·min/mL
terminal elimination half life (t1/2) ([1]; 10 mg/kg iv): 2.7978 ± 2.8483 h and 2.8 h
AUC0~∞ ([1]; 20 mg/kg iv): 745.75 ± 175.84 µg·min/mL and 745 µg·min/mL
terminal elimination half life (t1/2) ([1]; 20 mg/kg iv): 2.5175 ± 0.9553 h and 2.53 h
AUC0~∞ ([1]; 30 mg/kg iv): 1552.71 ± 227.28 µg·min/mL and 1552 µg·min/mL
terminal elimination half life (t1/2) ([1]; 30 mg/kg iv): 6.2182 ± 6.2163 h and 6.22 h
maximum plasma drug concentration ([1]; 30 mg/kg iv): 100 µg/mL
maximum plasma drug concentration ([1]; 30 mg/kg iv, listed as 3,4′,5-trihydroxy-stilbene-3-β-D-glucoside): about 100 μg/ml; also recorded: approximately 0.25 mM
AUC0~480 [1, 9]: 283.05 ± 49.85 µg·min/mL
AUC0~∞ [1, 9]: 315.42 ± 60.82 µg·min/mL
CI [1, 9]: 0.03 ± 0.01 L/min
MRT [1, 9]: 2.3343 ± 2.0812 h
Vss [1, 9]: 4.21 ± 3.06 L
t1/2 [1, 9]: 2.7978 ± 2.8483 h
AUC0~480 [1, 10]: 718.32 ± 179.10 µg·min/mL
AUC0~∞ [1, 10]: 745.75 ± 175.84 µg·min/mL
CI [1, 10]: 0.03 ± 0.01 L/min
MRT [1, 10]: 1.301 ± 0.204 h
Vss [1, 10]: 2.24 ± 0.78 L
t1/2 [1, 10]: 2.5175 ± 0.9553 h
AUC0~480 [1, 11]: 1432.17 ± 349.97 µg·min/mL
AUC0~∞ [1, 11]: 1552.71 ± 227.28 µg·min/mL
CI [1, 11]: 0.02 ± 0.00 L/min
MRT [1, 11]: 3.068 ± 4.0013 h
Vss [1, 11]: 4.25 ± 6.35 L
t1/2 [1, 11]: 6.2182 ± 6.2163 h

From US20080176810A1, “Use of 3, 4', 5-Trihydroxy-Stilbene-3-Beta-D-glucoside in Prepartion of Medicines For Treating and/or Preventing Ischemic Heart Disease” (SHENZHEN NEPTUNUS PHARMACEUTICAL CO., LTD., priority 2004, published 2008)
